# Molecular target: MAPK14 (human) (UniProt Q16539)
# Test: Inhibition of MAPK14 Kinase Activity
# Chain of MAPK14 (human) (Q16539 whole entry, looked up): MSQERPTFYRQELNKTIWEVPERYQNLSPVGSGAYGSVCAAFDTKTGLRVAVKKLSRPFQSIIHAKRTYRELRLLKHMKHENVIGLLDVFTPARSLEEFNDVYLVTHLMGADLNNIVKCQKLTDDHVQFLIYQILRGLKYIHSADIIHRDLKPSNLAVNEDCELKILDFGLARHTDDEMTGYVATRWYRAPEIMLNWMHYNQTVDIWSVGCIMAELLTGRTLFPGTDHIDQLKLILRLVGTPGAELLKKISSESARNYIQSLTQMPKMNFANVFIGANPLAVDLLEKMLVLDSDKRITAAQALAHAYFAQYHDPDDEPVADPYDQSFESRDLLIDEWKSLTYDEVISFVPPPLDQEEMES
row,SMILES,IC50 [nM]
1,Cc1ccc(Nc2c(C#N)sc3c2ccc(=O)n3-c2ccccc2)cc1Br,≤ 1000
2,Cc1ccc(Nc2c(C(N)=O)sc3c2ccc(=O)n3CC2CC2)cc1C,≤ 1000
3,Cc1cccc(Nc2c(C(N)=O)sc3c2ccc(=O)n3CC2CC2)c1C#N,≤ 1000
4,O=C(c1sc2c(ccc(=O)n2-c2ccccc2)c1Nc1ccccc1)N1CCCCC1,≤ 1000
5,CCOC(=O)c1sc2c(ccc(=O)n2-c2ccccc2)c1Nc1ccc(F)c(Cl)c1,≤ 1000
6,Cc1cccc(Nc2c(C#N)sc3c2ccc(=O)n3C2CC2)c1,≤ 1000
7,O=c1ccc2c(Nc3cccc(Cl)c3)csc2n1-c1ccccc1,≤ 1000
8,CCOC(=O)c1sc2c(ccc(=O)n2-c2ccccc2)c1Nc1ccc(C#N)c(Cl)c1,≤ 1000
9,NC(=O)c1sc2c(ccc(=O)n2-c2ccccc2)c1Nc1cccc(Cl)c1,≤ 1000
10,CCOC(=O)c1sc2c(ccc(=O)n2CC2CC2)c1Nc1cccc(C)c1C#N,≤ 1000
11,CCOC(=O)c1sc2c(ccc(=O)n2-c2ccccc2)c1Nc1ccc(Cl)cc1,≤ 1000
12,CCOC(=O)c1sc2c(ccc(=O)n2-c2cccc(C)c2)c1Nc1ccc(F)c(C)c1,≤ 1000
13,CCN(CC)CCNC(=O)c1sc2c(ccc(=O)n2-c2ccccc2)c1Nc1ccccc1,≤ 1000
14,Cc1cccc(Nc2c(C(N)=O)sc3c2ccc(=O)n3CC2CC2)c1,≤ 1000
15,N#Cc1sc2c(ccc(=O)n2-c2ccccc2)c1Nc1ccccc1OC(F)F,≤ 1000
16,N#Cc1sc2c(ccc(=O)n2-c2ccccc2)c1Nc1ccccc1O,≤ 1000
17,NC(=O)c1sc2c(ccc(=O)n2-c2ccccc2Cl)c1Nc1ccccc1,≤ 1000
18,NC(=O)c1sc2c(ccc(=O)n2-c2ccccc2[N+](=O)[O-])c1Nc1ccc(F)cc1F,≤ 1000
19,Cc1ccc(Nc2c(C(N)=O)sc3c2ccc(=O)n3CC2CC2)c(C)c1,≤ 1000
20,CON(C)C(=O)c1sc2c(ccc(=O)n2CC2CC2)c1Nc1ccccc1,≤ 1000
21,NC(=O)c1sc2c(ccc(=O)n2-c2ccccc2)c1Nc1ccccc1Cl,≤ 1000
22,CCOC(=O)c1sc2c(ccc(=O)n2-c2ccc(S(C)(=O)=O)cc2)c1Nc1cccc(C)c1,≤ 1000
23,Cc1cc(F)ccc1Nc1c(C#N)sc2c1ccc(=O)n2-c1ccccc1,≤ 1000
24,NC(=O)c1sc2c(ccc(=O)n2-c2ccccc2)c1Nc1ccccc1OC(F)(F)F,≤ 1000
25,N#Cc1ccccc1Nc1c(C(N)=O)sc2c1ccc(=O)n2-c1ccc2[nH]ccc2c1,≤ 1000

row,SMILES,IC50 [nM]
1,CCOC(=O)c1sc2c(ccc(=O)n2-c2ccccc2)c1Nc1ccc(F)cc1F,≤ 1000
2,Cc1cc(Nc2c(C#N)sc3c2ccc(=O)n3-c2ccccc2C)ccc1F,≤ 1000
3,Cc1cc(Nc2c(C(N)=O)sc3c2ccc(=O)n3-c2ccccc2C)ccc1F,≤ 1000
4,N#Cc1sc2c(ccc(=O)n2-c2ccccc2)c1Nc1cc(Cl)cc(Cl)c1,≤ 1000
5,COC(=O)NNC(=O)c1sc2c(ccc(=O)n2-c2ccccc2)c1Nc1ccc(F)cc1F,≤ 1000
6,CCOC(=O)c1sc2c(ccc(=O)n2-c2ccccc2[N+](=O)[O-])c1Nc1ccc(F)cc1F,≤ 1000
7,O=C(NC1CCNC1)c1sc2c(ccc(=O)n2-c2ccccc2)c1Nc1ccc(F)cc1F (stereo not given),≤ 1000
8,Cc1ccccc1-n1c(=O)ccc2c(Nc3ccc(F)cc3F)c(C#N)sc21,≤ 1000
9,O=C(c1sc2c(ccc(=O)n2-c2ccccc2)c1Nc1cccc(Cl)c1)N1CCCC1,≤ 1000
10,O=C(c1sc2c(ccc(=O)n2-c2ccccc2)c1Nc1ccc(F)cc1F)N1CCOCC1,≤ 1000
11,CCOC(=O)c1sc2c(ccc(=O)n2-c2ccc(Cl)cc2)c1Nc1ccc(F)c(C)c1,≤ 1000
12,N#Cc1sc2c(ccc(=O)n2-c2ccccc2)c1Nc1c(Cl)cccc1Cl,≤ 1000
13,CCOC(=O)c1sc2c(ccc(=O)n2-c2ccc([S+](C)[O-])cc2)c1Nc1ccccc1C#N (stereo not given),≤ 1000
14,CCOC(=O)c1sc2c(ccc(=O)n2-c2ccccc2)c1N(C)c1ccccc1,≤ 1000
15,CCOC(=O)c1sc2c(ccc(=O)n2-c2ccccc2)c1Nc1cccc(Cl)c1C#N,≤ 1000
16,Cc1ccc(-n2c(=O)ccc3c(Nc4cccc(C)c4)c(C#N)sc32)cc1,≤ 1000
17,N#Cc1sc2c(ccc(=O)n2-c2ccccc2)c1Nc1cccc(Cl)n1,≤ 1000
18,N#Cc1sc2c(ccc(=O)n2-c2ccccc2)c1Nc1cccc(OC(F)(F)F)c1,≤ 1000
19,CCOC(=O)c1sc2c(ccc(=O)n2CC2CCCCO2)c1Nc1ccc(F)cc1F (stereo not given),≤ 1000
20,CCOC(=O)c1sc2c(ccc(=O)n2-c2ccc3[nH]ccc3c2)c1Nc1ccccc1,≤ 1000
21,N#Cc1sc2c(ccc(=O)n2-c2ccccc2)c1Nc1cccc(SC(F)(F)F)c1,≤ 1000
22,CCc1cccc(Nc2c(C#N)sc3c2ccc(=O)n3-c2ccccc2)c1,≤ 1000
23,CCc1cccc(Nc2c(C(N)=O)sc3c2ccc(=O)n3-c2ccccc2)c1,≤ 1000
24,CON(C)C(=O)c1sc2c(ccc(=O)n2-c2ccc(N(C)C)cc2)c1Nc1ccccc1,≤ 1000
25,CCOC(=O)c1sc2c(ccc(=O)n2-c2ccc(OCCn3ccnc3C)cc2)c1Nc1ccc(F)cc1F,≤ 1000

row,SMILES,IC50 [nM]
1,Cc1cccc(Nc2c(C(N)=O)sc3c2ccc(=O)n3-c2ccccc2)n1,≤ 1000
2,O=C(NCCN1CCCCC1)c1sc2c(ccc(=O)n2-c2ccccc2)c1Nc1ccc(F)cc1F,≤ 1000
3,N#Cc1ccccc1Nc1c(C(N)=O)sc2c1ccc(=O)n2-c1ccsc1,≤ 1000
4,CCOC(=O)c1sc2c(ccc(=O)n2-c2ccsc2)c1Nc1ccccc1C#N,≤ 1000
5,C[S+]([O-])c1ccc(-n2c(=O)ccc3c(Nc4ccccc4C#N)c(C(N)=O)sc32)cc1 (stereo not given),≤ 1000
6,Cc1cccc(Nc2c(C#N)sc3c2ccc(=O)n3-c2ccccc2)n1,≤ 1000
7,N#Cc1sc2c(ccc(=O)n2-c2ccccc2)c1Nc1cccc(Cl)c1,≤ 1000
8,Cc1ccc(-n2c(=O)ccc3c(Nc4ccc(F)c(C)c4)c(C(N)=O)sc32)cc1,≤ 1000
9,Cc1ccc(Nc2c(C(N)=O)sc3c2ccc(=O)n3-c2ccccc2)cc1Br,≤ 1000
10,NC(=O)c1sc2c(ccc(=O)n2-c2ccccc2)c1Nc1ccc(F)cc1,≤ 1000
11,CCOC(=O)c1sc2c(ccc(=O)n2-c2ccc(N(C)C)cc2)c1Nc1ccccc1,≤ 1000
12,O=c1ccc2c(Nc3ccccc3)csc2n1-c1ccccc1,≤ 1000
13,C=Cc1ccc(-n2c(=O)ccc3c(Nc4ccccc4)c(C(=O)OCC)sc32)cc1,≤ 1000
14,CCOC(=O)c1sc2c(ccc(=O)n2-c2ccc(C(O)CO)cc2)c1Nc1ccccc1 (stereo not given),≤ 1000
15,Cc1cccc(Nc2c(C(N)=O)sc3c2ccc(=O)n3-c2ccccc2Cl)c1,≤ 1000
16,CN(C)C(=O)c1sc2c(ccc(=O)n2-c2ccccc2)c1Nc1ccccc1,≤ 1000
17,Cc1cccc(Nc2c(C(N)=S)sc3c2ccc(=O)n3-c2ccccc2)c1,≤ 1000
18,Cc1cc(Nc2c(C(=O)N(C)O)sc3c2ccc(=O)n3-c2ccccc2)ccc1F,≤ 1000
19,O=C(O)c1sc2c(ccc(=O)n2-c2ccc3[nH]ccc3c2)c1Nc1ccccc1,≤ 1000
20,N#Cc1sc2c(ccc(=O)n2-c2ccccc2)c1Nc1ccc(F)c(Cl)c1,≤ 1000
21,N#Cc1sc2c(ccc(=O)n2-c2ccccc2)c1Nc1cccc(Br)c1,≤ 1000
22,Cc1cccc(Nc2c(C#N)sc3c2ccc(=O)n3-c2ccccc2)c1,≤ 1000
23,O=C(NCCN1CCOCC1)c1sc2c(ccc(=O)n2-c2ccccc2)c1Nc1ccccc1,≤ 1000
24,O=C(c1sc2c(ccc(=O)n2-c2ccccc2)c1Nc1ccc(F)cc1F)N1CCCC1,≤ 1000
25,CCOC(=O)c1sc2c(ccc(=O)n2-c2ccccc2)c1Nc1cccc(C)c1,≤ 1000

# From the Kinase Knowledgebase extract (Sharma et al. 2016)
